Entries after “also recorded” stand apart in the source; their conditions may differ. Where no end group is shown, it is not given here. The star is where a group is joined. For = O=C*
Tested on: OVA-sensitized/challenged mice
Experiment: OVA-induced bronchial asthma mouse model (Standard/Resolution protocols, 1-3 month), airway eosinophils and mucus plugs
Assay type: in vivo
Excerpt: The OVA-induced Bronchial Asthma Mouse Model for Inhibition of Mast Cell Degranulation
Reagents: Crystalline OVA was obtained from Pierce Chem. Co. (Rockford, Ill.) aluminum potassium sulfate (alum) from Sigma Chem. Co. (St. Louis, Mo.), pyrogen-free distilled water from Baxter, Healthcare Corporation (Deerfield, Ill.), 0.9% sodium chloride (normal saline) from Lymphomed (Deerfield, Ill.) and Trappsol™ HPB-L100 (aqueous hydroxypropyl beta cyclodextrin; 45 wt/vol % aqueous solution) from Cyclodextrin Technologies Development, Inc. (Gainesville, Fla.). The OVA (500 μg/ml in normal saline) was mixed with equal volumes of 10% (wt/vol) alum in distilled water. The mixture (pH 6.5 using 10 N NaOH) after incubation for 60 minutes at room temperature underwent centrifugation at 750 g for 5 minutes; the pellet was resuspended to the original volume in distilled water and used within one hour.
The selective 5-lipoxtgenase inhibitor, Zileuton (N-[1-benzo[b]thien-2-ylethyl]-N-hydroxyurea; J. Pharmacol Exp Ther. 1991; 256: 929-937), was kindly provided by Drs. Bell and George W. Carter (Abbott Laboratories, Abbott Part, Ill.). Zileuton was dissolved in Trappsol.™. Histatek, Inc. (Seattle, Wash.) provided the mast cell degranulation inhibitor, f-Met-Leu-Phe-Phe (“HK-X”).
Female BALB/c […] (6-8 wk of age at purchase; D and K, Seattle Wash.) were housed under conventional conditions for the studies.
Allergen Immunization/Challenge Protocols: Mice received an i.p. injection of 0.2 ml (100 μg) of OVA with alum on the different protocols of Standard (FIG. 5A) and Resolution (FIG. 5B) (J. Exp Med. 1996; 184: 1483-1494). According to the different protocols, mice were anesthetized with 0.2 ml i.p. of ketamine (0.44 mg/ml)/xylazine (6.3 mg/ml) in normal saline before receiving an intranasal (i.n.) does of 100 μg OVA in 0.05 ml normal saline and an i.n. dose of 50 μg OVA in 0.05 ml normal saline separately on different days. Two control groups were used. Accordingly, the first group received normal saline with alum i.p. and normal saline without alum i.n.; the second group received OVA with alum i.p., OVA without alum i.n., and normal saline, alone.
The trachea and left lung (the right lung is used for bronchoalveolar lavage (“BAL”)) were obtained and fixed in 10% neutral formaldehyde solution at room temperature for 6˜15 h. After being embedded in paraffin, the tissues were cut into 5-um sections and processed with the different staining or immunolabling further. Discombe's eosinophil staining was used for counting the cell numbers with the counterstain of methylene blue. The eosinophil number per unit airway area (2,200 μm^2) was determined by morphometry (J. Pathol. 1992; 166: 395-404; Am Rev Respir Dis. 1993; 147:448-456). Fibrosis was identified with the Masson's trichrome staining. Airway mucus was identified by the following staining method: methylene blue, hematoxylin and eosin, mucicarmine, alcian blue, and alcian blue/periodic acid-Schiff (PAS) reaction (Troyer, H., “Carbohydrates” in Principles and Techniques of Histochemistry, Little, Brown and Company, Boston, Mass., 1980: 89-121; Sheehan, D. C., et al., “Carbohydrates” in Theory and Practice of Histotechnology, Battle Press, Columbus, Ohio, 1980: 159-179) Mucin was stained with mucicarmine solution; metanil yellow counterstain was employed. Acidic mucin and sulfated mucosubstances were stained with alcian blue, pH 2.5; nuclear fast red counterstain was used. Neutral and acidic mucosubstances were identified by alcian blue, pH 2.5, and PAS reaction. The degree of mucus plugging of the airways (0.5-0.8 mm in diameter) was also assessed by morphometry. The percent occlusion of airway diameter by mucus was classified on a semiquantitative scale from 0 to 4+ as described in Figure Legends. The histologic and morphometric analyses were performed by individuals blinded to the protocol design. […]

Substance: f-Met-Leu-Phe-Phe (For-MLFF) [Example 9]
- AIRWAY INFLUX OF EOSINOPHILS (%) (1 month): 14.20%
- % of plug of airway (28 days): 19%
- PERCENTAGE OF EOSINOPHILS IN AIRWAY TISSUE (28 days of treatment): 14.2%
- MUCUS PLUG SCORE IN AIRWAYS (28 days, semiquantitative scale 0 to 4+): 1.4
- mucus accumulation / mucus release in airway (HK-X given before i.n. OVA, morphometry, FIG. 6, listed as HK-X): inhibits mucus accumulation in the airway; also recorded: airway mucus release in the airway (AW) lumen is markedly reduced
- infiltration of the interstitial tissue by eosinophils (compared to OVA-challenge alone, FIG. 6C): infiltration of the interstitial tissue by eosinophils is also reduced
- formation of mucus plugs / mucus production in small airways (doses of 5 μg/kg and 10 μg/kg, FIG. 7): Both doses significantly reduce the mucus production in small airways
- reduction of airway eosinophils compared with Zileuton (one month): reduced eosinophils comparably at one month
- reduction of airway eosinophils compared with Zileuton (two and three months): much more beneficially at two and three months
